This is an account of results in patent publication US9127016B2, “Small molecule inhibitors of Dusp6 and uses therefor” (University of Pittsburgh—Of the Commonwealth System of …, priority 2009, dated 2015).

The target of this test is T1, human Dusp1 (Homo sapiens, UniProt P28562).
T1 construct: expressed in transfected cells; host or cells: HeLa cells, pcDNA3.1, FuGene 6
T1 sequence (P28562 1-367): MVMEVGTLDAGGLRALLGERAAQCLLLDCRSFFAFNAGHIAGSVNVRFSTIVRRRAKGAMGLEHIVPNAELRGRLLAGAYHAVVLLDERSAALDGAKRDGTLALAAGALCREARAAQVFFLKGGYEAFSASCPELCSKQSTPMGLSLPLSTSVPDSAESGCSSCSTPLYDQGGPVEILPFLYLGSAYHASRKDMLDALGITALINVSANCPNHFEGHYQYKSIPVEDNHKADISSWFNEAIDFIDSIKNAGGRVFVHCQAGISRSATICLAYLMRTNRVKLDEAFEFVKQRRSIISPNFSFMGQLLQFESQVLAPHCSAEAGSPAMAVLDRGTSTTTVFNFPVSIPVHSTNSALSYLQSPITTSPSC
The test is described as follows: Chemical complementation assay in HeLa cells, pERK restoration, Dusp1-Myc. The conditions noted are these: TPA stimulated. The test is classed as cell-based. The procedure:
These experiments were carried out essentially as described26. HeLa cells were obtained from ATCC (Manassas, Va.) and maintained in a humidified atmosphere of 5% CO2 at 37° C., Dulbecco's […] (DMEM) supplemented with 10% fetal bovine serum (FBS, HyClone, Logan, Utah), and 1% penicillin-streptomycin (Life Technologies, Inc., Rockville, Md.). c-Myc-Dusp6 and c-Myc-Dusp1 (also known as CL100) (kindly provided by Dr. Stephen Keyse, University of Dundee) were subcloned into pcDNA3.1 for ectopic expression in mammalian cells50. […] Plates were analyzed by three-channel multiparametric analysis for p-ERK and c-Myc-DUSP intensities in an area defined by nuclear staining using the Compartmental Analysis Bioapplication on an ArrayScan II high-content reader (Cellomics, Pittsburgh, Pa.). Restoration of ERK phosphorylation by BCI in Dusp6 overexpressing cells was quantified by Kolmogorov-Smirnov (KS) statistics as described previously using DUSP-transfected and vehicle treated control wells26. One thousand individual cells were gated for Dusp-Myc expression based on c-Myc immunostaining and analyzed for ERK phosphorylation. […] To quantify restoration of Erk phosphorylation in the Dusp expressing cells after compound treatment, KS values for each condition were normalized to the average KS value from four wells transfected with Dusp1 or Dusp6 and treated with vehicle. […]

With `O=C1/C(=C/c2ccccc2)C(NC2CCCCC2)c2ccccc21` (centres unmarked) [Compound 3, (E)-2-benzylidene-3-(cyclohexylamino)-2,3-dihydro-1H-inden-1-one], the IC50 (15 min compound, read-out: IC50, Dusp1 inhibition (pERK restoration)) is 11.2 µM.

For the molecule `O=C1CC(NC2CCCCC2)c2ccccc21` (centres unmarked) [Compound 17, 3-(Cyclohexylamino)-2,3-dihydro-1H-inden-1-one], the “block of Dusp1 activity in chemical complementation assay” value is recorded as “did not block”.
